This is an account of results in patent US20250230147A1, “LACTAMS AS CBL-B INHIBITORS” (Genentech, Inc., priority 2021, published 2025).

Counter-ions that a name gives are not always drawn.

One assay concerns the target c-Cbl (Homo sapiens (Human), UniProt P22681). Nature of the assay: C-Cbl LCK Ub TR-FRET assay (c-cbl Lck HTRF). The class given is biochemical. To be noted: for (fold-selectivity): C-cbl Lck HTRF IC50 relative to Cbl-b Lck HTRF IC50. The method in brief: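 Detection reagents added, brief spin, 20 min RT. IC50 fit normalized to no-LCK (low) and DMSO (high) controls.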
A general note: TR-FRET usually uses a lanthanide donor and a delayed reading to cut background.

For another assay, the target named is Cbl-b (Homo sapiens (Human), UniProt Q13191). Nature of the assay: Cbl-b LCK Ub TR-FRET assay (Cbl-b Lck HTRF). The class given is biochemical. The method in brief: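 Biotin-Cbl-b preincubated with compound (10-point 3-fold series) 60 min, then His-LCK with 1 mM ATP (2× mixture) added for 90 min at room temperature. Ubiquitination detected by TR-FRET using HA-ubiquitin/UBE2D2 adduct, anti-HA-D2 and streptavidin-Eu; IC50 normalised to no-LCK and DMSO controls.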
Cbl-b, sequence (Q13191 40-426): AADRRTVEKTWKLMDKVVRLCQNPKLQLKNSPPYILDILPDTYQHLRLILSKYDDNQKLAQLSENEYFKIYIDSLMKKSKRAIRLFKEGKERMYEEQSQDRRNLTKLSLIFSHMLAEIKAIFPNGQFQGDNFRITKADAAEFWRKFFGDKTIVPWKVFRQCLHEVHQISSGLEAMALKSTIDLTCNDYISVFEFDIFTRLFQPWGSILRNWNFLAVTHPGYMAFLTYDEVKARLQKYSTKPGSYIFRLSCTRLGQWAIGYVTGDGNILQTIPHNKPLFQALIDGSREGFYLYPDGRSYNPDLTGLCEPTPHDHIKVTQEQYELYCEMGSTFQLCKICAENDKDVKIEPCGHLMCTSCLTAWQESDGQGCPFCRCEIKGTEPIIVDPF

c-Cbl, sequence (P22681 47-435): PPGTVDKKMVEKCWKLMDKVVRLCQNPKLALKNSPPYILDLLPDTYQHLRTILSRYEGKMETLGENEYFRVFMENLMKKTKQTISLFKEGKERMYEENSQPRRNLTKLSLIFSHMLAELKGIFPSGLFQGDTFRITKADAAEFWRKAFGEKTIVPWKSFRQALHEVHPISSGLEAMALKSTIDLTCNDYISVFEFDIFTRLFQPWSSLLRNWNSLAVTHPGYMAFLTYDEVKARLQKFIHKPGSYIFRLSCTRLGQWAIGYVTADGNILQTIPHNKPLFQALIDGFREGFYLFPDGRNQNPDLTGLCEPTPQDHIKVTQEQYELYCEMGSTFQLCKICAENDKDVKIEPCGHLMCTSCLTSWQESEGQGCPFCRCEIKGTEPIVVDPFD

What is called IC50 is the point on the concentration scale where inhibition reaches its midpoint. In the case of `Cn1cnnc1CC1(c2cc(CCC(C)(C)C)nc(N3Cc4c(cc(CNC5(C)CCC5)cc4C(F)(F)F)C3=O)c2)CCC1` [Compound 322, 2-(6-(3,3-dimethylbutyl)-4-(1-((4-methyl-4H-1,2,4-triazol-3-yl)methyl)cyclobutyl)pyridin-2-yl)-6-(((1-methylcyclobutyl)amino)methyl)-4-(trifluoromethyl)isoindolin-1-one], the IC50 on c-Cbl turned out to be 34 nM; on Cbl-b it was 27 nM. Also, on c-Cbl, the “(fold-selectivity)” value was “(1.2x)”.

In the case of `Cn1cnnc1CC1(c2cc(-c3ccccc3)nc(N3Cc4c(cc(CNC5(C)CCC5)cc4C(F)(F)F)C3=O)c2)CCC1` [Compound 324, 2-(4-(1-((4-methyl-4H-1,2,4-triazol-3-yl)methyl)cyclobutyl)-6-phenylpyridin-2-yl)-6-(((1-methylcyclobutyl)amino)methyl)-4-(trifluoromethyl)isoindolin-1-one], at c-Cbl, the IC50 is 7.6 nM and the “(fold-selectivity)” value is on record as “(0.66x)”. This compound also yielded an IC50 against Cbl-b of 12 nM.

In the case of `Cn1cnnc1CC1(c2cc(CCc3ccccc3)nc(N3Cc4c(cc(CNC5(C)CCC5)cc4C(F)(F)F)C3=O)c2)CCC1` [Compound 325, 2-(4-(1-((4-methyl-4H-1,2,4-triazol-3-yl)methyl)cyclobutyl)-6-phenethylpyridin-2-yl)-6-(((1-methylcyclobutyl)amino)methyl)-4-(trifluoromethyl)isoindolin-1-one], the figures for the IC50 on c-Cbl and on Cbl-b were 41 nM and 47 nM, respectively. Besides, the “(fold-selectivity)” value on c-Cbl is on record as “(0.87x)”.

For `Cn1cnnc1CC1(c2ccnc(N3Cc4c(cc(CNC5(C)CCC5)cc4C(F)(F)F)C3=O)c2)CCC1` [Compound 326, 2-(4-(1-((4-methyl-4H-1,2,4-triazol-3-yl)methyl)cyclobutyl)pyridin-2-yl)-6-(((1-methylcyclobutyl)amino)methyl)-4-(trifluoromethyl)isoindolin-1-one], on c-Cbl, the IC50 was found to be 16 nM and the “(fold-selectivity)” value was “(1.1x)”. The compound further gave an IC50 against Cbl-b of 15 nM.

Turning to `Cn1cc(-c2cc(C3(Cc4nncn4C)CCC3)cc(N3Cc4c(cc(CNC5(C)CCC5)cc4C(F)(F)F)C3=O)n2)cn1` [Compound 327, 2-(6-(1-methyl-1H-pyrazol-4-yl)-4-(1-((4-methyl-4H-1,2,4-triazol-3-yl)methyl)cyclobutyl)pyridin-2-yl)-6-(((1-methylcyclobutyl)amino)methyl)-4-(trifluoromethyl)isoindolin-1-one], the IC50 against c-Cbl and against Cbl-b was 12 nM each time. Further, at c-Cbl, the “(fold-selectivity)” value was “(1.0x)”.

On to `CC(=O)N1CCC(CNc2cc(C3(Cc4nncn4C)CCC3)cc(N3Cc4c(cc(CNC5(C)CCC5)cc4C(F)(F)F)C3=O)n2)CC1.Cl` [Compound 329, 2-(6-(((1-acetylpiperidin-4-yl)methyl)amino)-4-(1-((4-methyl-4H-1,2,4-triazol-3-yl)methyl)cyclobutyl)pyridin-2-yl)-6-(((1-methylcyclobutyl)amino)methyl)-4-(trifluoromethyl)isoindolin-1-one hydrochloride], for which, at c-Cbl, the IC50 is 65 nM and the “(fold-selectivity)” value was “(0.66x)”. The same compound registered an IC50 at Cbl-b of 98 nM.

In the case of `CC(=O)Nc1cc(C2(Cc3nncn3C)CCC2)cc(N2Cc3c(cc(CN4CCN(C)C[C@@H]4C(C)C)cc3C(F)(F)F)C2=O)n1` [Compound 330, (S)-N-(6-(6-((2-isopropyl-4-methylpiperazin-1-yl)methyl)-1-oxo-4-(trifluoromethyl)isoindolin-2-yl)-4-(1-((4-methyl-4H-1,2,4-triazol-3-yl)methyl)cyclobutyl)pyridin-2-yl)acetamide], on c-Cbl, the IC50 amounted to 1200 nM and the “(fold-selectivity)” value was “(1.2x)”. On Cbl-b, this compound yielded an IC50 of 1000 nM.

As to `Cn1cnnc1CC1(c2cccc(N3Cc4c(cc(CNC5(C)COC5)cc4C(F)(F)F)C3=O)c2)CC(F)(F)C1` [Compound 332, 2-(3-(3,3-difluoro-1-((4-methyl-4H-1,2,4-triazol-3-yl)methyl)cyclobutyl)phenyl)-6-(((3-methyloxetan-3-yl)amino)methyl)-4-(trifluoromethyl)isoindolin-1-one], on c-Cbl, the IC50 worked out at 34 nM and the “(fold-selectivity)” value is on record as “(1.2x)”. The IC50 on Cbl-b is 28 nM.

`CC(C)[C@H]1CN(C)CCN1Cc1cc2c(c(C(F)(F)F)c1)CN(c1cc(C3(Cc4nncn4C)CCC3)cc(NC(=O)CCl)n1)C2=O` [Compound 333, (S)-2-chloro-N-(6-(6-((2-isopropyl-4-methylpiperazin-1-yl)methyl)-1-oxo-4-(trifluoromethyl)isoindolin-2-yl)-4-(1-((4-methyl-4H-1,2,4-triazol-3-yl)methyl)cyclobutyl)pyridin-2-yl)acetamide]: at c-Cbl, the IC50 came to 53 nM and the “(fold-selectivity)” value was “(1.0x)”. Further, inhibition against Cbl-b was half-maximal at 52 nM (IC50).

For `Cn1cnnc1CC1(c2cccc(N3Cc4c(cc(CNCC5CC5)cc4C(F)(F)F)C3=O)c2)CC(F)(F)C1` [Compound 334, 6-(((cyclopropylmethyl)amino)methyl)-2-(3-(3,3-difluoro-1-((4-methyl-4H-1,2,4-triazol-3-yl)methyl)cyclobutyl)phenyl)-4-(trifluoromethyl)isoindolin-1-one], at c-Cbl, the IC50 was determined as 8.1 nM and the “(fold-selectivity)” value is on record as “(0.72) x”. Besides, the half-inhibitory concentration (IC50) against Cbl-b turned out to be 11 nM.

With `Cn1cnnc1CC1(c2cc(NCC3CCOCC3)nc(N3Cc4c(cc(CNC5(C)CCC5)cc4C(F)(F)F)C3=O)c2)CCC1` [Compound 335, 2-(4-(1-((4-methyl-4H-1,2,4-triazol-3-yl)methyl)cyclobutyl)-6-(((tetrahydro-2H-pyran-4-yl)methyl)amino)pyridin-2-yl)-6-(((1-methylcyclobutyl)amino)methyl)-4-(trifluoromethyl)isoindolin-1-one], the IC50 against c-Cbl was determined as 190 nM; at Cbl-b it was 180 nM. On c-Cbl, the “(fold-selectivity)” value is “(1.0x)”.

Take `COCCOCCNc1cc(C2(Cc3nncn3C)CCC2)cc(N2Cc3c(cc(CNC4(C)CCC4)cc3C(F)(F)F)C2=O)n1` [Compound 336, 2-(6-((2-(2-methoxyethoxy)ethyl)amino)-4-(1-((4-methyl-4H-1,2,4-triazol-3-yl)methyl)cyclobutyl)pyridin-2-yl)-6-(((1-methylcyclobutyl)amino)methyl)-4-(trifluoromethyl)isoindolin-1-one]: at c-Cbl, it took 23 nM to reach half-maximal inhibition (IC50) and the “(fold-selectivity)” value is “(0.70x)”. The midpoint of inhibition at Cbl-b, the IC50, lay at 33 nM.

Regarding `CN(C)CCNc1cc(C2(Cc3nncn3C)CCC2)cc(N2Cc3c(cc(CNC4(C)CCC4)cc3C(F)(F)F)C2=O)n1` [Compound 337, 2-(6-((2-(dimethylamino)ethyl)amino)-4-(1-((4-methyl-4H-1,2,4-triazol-3-yl)methyl)cyclobutyl)pyridin-2-yl)-6-(((1-methylcyclobutyl)amino)methyl)-4-(trifluoromethyl)isoindolin-1-one], the IC50 on c-Cbl was found to be 1100 nM; against Cbl-b it was 2400 nM. In addition, at c-Cbl, the “(fold-selectivity)” value is on record as “(0.45x)”.

Regarding `Cn1cnnc1CC1(c2cc(NCCN3CCCC3=O)nc(N3Cc4c(cc(CNC5(C)CCC5)cc4C(F)(F)F)C3=O)c2)CCC1` [Compound 338, 2-(4-(1-((4-methyl-4H-1,2,4-triazol-3-yl)methyl)cyclobutyl)-6-((2-(2-oxopyrrolidin-1-yl)ethyl)amino)pyridin-2-yl)-6-(((1-methylcyclobutyl)amino)methyl)-4-(trifluoromethyl)isoindolin-1-one], the IC50 came out at 140 nM at c-Cbl and 130 nM against Cbl-b. On c-Cbl, the “(fold-selectivity)” value is reported as “(1.1x)”.

As to `Cn1cnnc1CC1(c2cc(NCC3CCNCC3)nc(N3Cc4c(cc(CNC5(C)CCC5)cc4C(F)(F)F)C3=O)c2)CCC1` [Compound 339, 2-(4-(1-((4-methyl-4H-1,2,4-triazol-3-yl)methyl)cyclobutyl)-6-((piperidin-4-ylmethyl)amino)pyridin-2-yl)-6-(((1-methylcyclobutyl)amino)methyl)-4-(trifluoromethyl)isoindolin-1-one], the IC50 was determined as 360 nM against c-Cbl and 530 nM on Cbl-b. In addition, the “(fold-selectivity)” value on c-Cbl is recorded as “(0.68x)”.

For `Cn1cnnc1CC1(c2cc(NCCN3CCOCC3)nc(N3Cc4c(cc(CNC5(C)CCC5)cc4C(F)(F)F)C3=O)c2)CCC1` [Compound 340, 2-(4-(1-((4-methyl-4H-1,2,4-triazol-3-yl)methyl)cyclobutyl)-6-((2-morpholinoethyl)amino)pyridin-2-yl)-6-(((1-methylcyclobutyl)amino)methyl)-4-(trifluoromethyl)isoindolin-1-one], on c-Cbl, the IC50 came to 320 nM and the “(fold-selectivity)” value was “(0.74x)”. At Cbl-b, this compound displayed an IC50 of 440 nM.

Take `Cn1cnnc1CC1(c2cccc(N3Cc4c(cc(CNC5(C)CC(F)C5)cc4C(F)(F)F)C3=O)c2)CC(F)(F)C1` (centres unmarked) [Compound 341, 2-(3-(3,3-difluoro-1-((4-methyl-4H-1,2,4-triazol-3-yl)methyl)cyclobutyl)phenyl)-6-(((3-fluoro-1-methylcyclobutyl)amino)methyl)-4-(trifluoromethyl)isoindolin-1-one]: at c-Cbl, the IC50 turned out to be 10 nM and the “(fold-selectivity)” value is recorded as “(0.74x)”. Further, inhibition at Cbl-b was half-maximal at 14 nM (IC50).

With `CC(C)Cc1cc(C2(Cc3nncn3C)CCC2)cc(N2Cc3c(cc(CNC4(C)CCC4)cc3C(F)(F)F)C2=O)n1` [Compound 342, 2-(6-isobutyl-4-(1-((4-methyl-4H-1,2,4-triazol-3-yl)methyl)cyclobutyl)pyridin-2-yl)-6-(((1-methylcyclobutyl)amino)methyl)-4-(trifluoromethyl)isoindolin-1-one formate], the IC50 at c-Cbl was 7.9 nM; against Cbl-b it was 11 nM.
